Key:
[1] = Cytotoxicity against human MRC5 cells assessed as cell viability at 100 uM relative to control; format: cell-based; conditions: read-out: Activity
[2] = Cytotoxicity against human HK1 cells assessed as reduction in cell viability; format: functional, cell-based; conditions: HK-1
Caco-2 [3] = assay: Cytotoxicity against human Caco2 cells assessed as cell viability at 100 uM relative to control; format: functional; conditions: read-out: Activity
T47D [4] = assay: Cytotoxicity against human T47D cells assessed as reduction in cell viability; format: functional, cell-based
SW48 [5] = assay: Cytotoxicity against human SW48 cells assessed as cell viability at 100 uM relative to control; format: functional; conditions: read-out: Activity
MCF-10A = assay: Cytotoxicity against human MCF10A cells assessed as reduction in cell viability; format: cell-based
T47D [6] = assay: Cytotoxicity against human T47D cells assessed as cell viability at 100 uM relative to control; format: functional; conditions: read-out: Activity
A549 [7] = assay: Cytotoxicity against human A549 cells assessed as cell viability at 100 uM relative to control; format: functional; conditions: read-out: Activity
HT-29 [8] = assay: Cytotoxicity against human HT-29 cells assessed as cell viability at 100 uM relative to control; format: functional; conditions: read-out: Activity
BXPC-3 [9] = assay: Cytotoxicity against human BxPC3 cells assessed as cell viability at 100 uM relative to control; format: functional; conditions: read-out: Activity
MDA-MB-231 [10] = assay: Cytotoxicity against human MDA-MB-231 cells assessed as reduction in cell viability; format: functional, cell-based
Caco-2 [11] = assay: Cytotoxicity against human Caco2 cells assessed as reduction in cell viability; format: functional, cell-based
NCI-H1299 [12] = assay: Cytotoxicity against human H1299 cells assessed as cell viability at 100 uM relative to control; format: functional; conditions: read-out: Activity
ASPC1 [13] = assay: Cytotoxicity against human AsPC1 cells assessed as cell viability at 100 uM relative to control; format: functional; conditions: read-out: Activity
SH-SY5Y [14] = assay: Cytotoxicity against human SH-SY5Y cells assessed as cell viability at 100 uM relative to control; format: functional; conditions: read-out: Activity
SUNE1 [15] = assay: Cytotoxicity against human SUNE1 cells assessed as reduction in cell viability; format: functional, cell-based
SK-BR-3 [16] = assay: Cytotoxicity against human SKBR3 cells assessed as cell viability at 100 uM relative to control; format: functional; conditions: read-out: Activity
MDA-MB-468 [17] = assay: Cytotoxicity against human MDA-MB-468 cells assessed as cell viability at 100 uM relative to control; format: functional; conditions: read-out: Activity
SK-BR-3 [18] = assay: Cytotoxicity against human SKBR3 cells assessed as reduction in cell viability; format: functional, cell-based
SW1990 [19] = assay: Cytotoxicity against human SW1990 cells assessed as cell viability at 100 uM relative to control; format: functional; conditions: read-out: Activity
BXPC-3 [20] = assay: Cytotoxicity against human BxPC3 cells assessed as reduction in cell viability; format: functional, cell-based
SH-SY5Y [21] = assay: Cytotoxicity against human SH-SY5Y cells assessed as reduction in cell viability; format: functional, cell-based
MCF7 [22] = assay: Cytotoxicity against human MCF7 cells assessed as cell viability at 100 uM relative to control; format: functional; conditions: read-out: Activity
SW48 [23] = assay: Cytotoxicity against human SW48 cells assessed as reduction in cell viability; format: functional, cell-based
MDA-MB-468 [24] = assay: Cytotoxicity against human MDA-MB-468 cells assessed as reduction in cell viability; format: functional, cell-based
MCF7 [25] = assay: Cytotoxicity against human MCF7 cells assessed as reduction in cell viability; format: functional, cell-based
[26] = Cytotoxicity against human MCF10A cells assessed as cell viability at 100 uM relative to control; format: cell-based, MCF-10A; conditions: read-out: Activity
MDA-MB-231 [27] = assay: Cytotoxicity against human MDA-MB-231 cells assessed as cell viability at 100 uM relative to control; format: functional; conditions: read-out: Activity
[28] = Cytotoxicity against human HK1 cells assessed as cell viability at 100 uM relative to control; format: functional; conditions: HK-1, read-out: Activity
ASPC1 [29] = assay: Cytotoxicity against human AsPC1 cells assessed as reduction in cell viability; format: functional, cell-based
SW1990 [30] = assay: Cytotoxicity against human SW1990 cells assessed as reduction in cell viability; format: functional, cell-based
HCT-116 [31] = assay: Cytotoxicity against human HCT116 cells assessed as reduction in cell viability; format: functional, cell-based
SUNE1 [32] = assay: Cytotoxicity against human SUNE1 cells assessed as cell viability at 100 uM relative to control; format: functional; conditions: read-out: Activity
HT-29 [33] = assay: Cytotoxicity against human HT-29 cells assessed as reduction in cell viability; format: functional, cell-based
A549 [34] = assay: Cytotoxicity against human A549 cells assessed as reduction in cell viability; format: functional, cell-based
NCI-H1299 [35] = assay: Cytotoxicity against human H1299 cells assessed as reduction in cell viability; format: functional, cell-based
MRC5 = assay: Cytotoxicity against human MRC5 cells assessed as reduction in cell viability; format: cell-based
CNE [36] = assay: Cytotoxicity against human CNE1 cells assessed as reduction in cell viability; format: functional, cell-based
CNE [37] = assay: Cytotoxicity against human CNE1 cells assessed as cell viability at 100 uM relative to control; format: functional; conditions: read-out: Activity
HCT-116 [38] = assay: Cytotoxicity against human HCT116 cells assessed as cell viability at 100 uM relative to control; format: functional; conditions: read-out: Activity

SMILES	viability at 100 µM [1]	IC50 [2]	viability at 100 µM (Caco-2 [3])	IC50 (T47D [4])	viability at 100 µM (SW48 [5])	IC50 (MCF-10A)	viability at 100 µM (T47D [6])	viability at 100 µM (A549 [7])	viability at 100 µM (HT-29 [8])	viability at 100 µM (BXPC-3 [9])	IC50 (MDA-MB-231 [10])	IC50 (Caco-2 [11])	viability at 100 µM (NCI-H1299 [12])	viability at 100 µM (ASPC1 [13])	viability at 100 µM (SH-SY5Y [14])	IC50 (SUNE1 [15])	viability at 100 µM (SK-BR-3 [16])	viability at 100 µM (MDA-MB-468 [17])	IC50 (SK-BR-3 [18])	viability at 100 µM (SW1990 [19])	other results
O=[N+]([O-])c1ccc(NC(CCl)CCl)cc1	44.9%	> 100 µM	91.6%	> 100 µM	58.8%	> 100 µM	65.2%	73.5%	60.9%	82.9%	> 100 µM	> 100 µM	67.4%	67.7%	65.8%	> 100 µM	73.1%	45.1%	> 100 µM	55.1%	IC50 (BXPC-3 [20]): > 100 µM; IC50 (SH-SY5Y [21]): > 100 µM; viability at 100 µM (MCF7 [22]): 38.8%; IC50 (SW48 [23]): > 100 µM; IC50 (MDA-MB-468 [24]): > 100 µM; IC50 (MCF7 [25]): 70.2 µM; viability at 100 µM [26]: 82.7%; viability at 100 µM (MDA-MB-231 [27]): 72.4%; viability at 100 µM [28]: 76.9%; IC50 (ASPC1 [29]): > 100 µM; IC50 (SW1990 [30]): > 100 µM; IC50 (HCT-116 [31]): > 100 µM; viability at 100 µM (SUNE1 [32]): 110%; IC50 (HT-29 [33]): > 100 µM; IC50 (A549 [34]): > 100 µM; IC50 (NCI-H1299 [35]): > 100 µM; IC50 (MRC5): 58.3 µM; IC50 (CNE [36]): > 100 µM; viability at 100 µM (CNE [37]): 88.1%; viability at 100 µM (HCT-116 [38]): 79.4%
O=[N+]([O-])c1ccc(NC(CO)CO)c([N+](=O)[O-])c1	78.9%	> 100 µM	102%	> 100 µM	88.2%	> 100 µM	79.9%	77.4%	89.6%	104%	> 100 µM	> 100 µM	89.8%	108%	86.1%	> 100 µM	98.9%	106%	> 100 µM	65.8%	IC50 (BXPC-3 [20]): > 100 µM; IC50 (SH-SY5Y [21]): > 100 µM; viability at 100 µM (MCF7 [22]): 55.5%; IC50 (SW48 [23]): > 100 µM; IC50 (MDA-MB-468 [24]): > 100 µM; IC50 (MCF7 [25]): > 100 µM; viability at 100 µM [26]: 105%; viability at 100 µM (MDA-MB-231 [27]): 79.4%; viability at 100 µM [28]: 103%; IC50 (ASPC1 [29]): > 100 µM; IC50 (SW1990 [30]): > 100 µM; IC50 (HCT-116 [31]): > 100 µM; viability at 100 µM (SUNE1 [32]): 106%; IC50 (HT-29 [33]): > 100 µM; IC50 (A549 [34]): > 100 µM; IC50 (NCI-H1299 [35]): > 100 µM; IC50 (MRC5): > 100 µM; IC50 (CNE [36]): > 100 µM; viability at 100 µM (CNE [37]): 102%; viability at 100 µM (HCT-116 [38]): 81.9%
O=[N+]([O-])c1ccc(NC(CCl)CCl)c([N+](=O)[O-])c1	24.3%	> 100 µM	105%	85.3 µM	55.2%	> 100 µM	58.7%	59.4%	89.1%	103%	> 100 µM	> 100 µM	96.3%	106%	63.6%	> 100 µM	71.6%	61.3%	> 100 µM	69.8%	IC50 (BXPC-3 [20]): > 100 µM; IC50 (SH-SY5Y [21]): > 100 µM; viability at 100 µM (MCF7 [22]): 25.1%; IC50 (SW48 [23]): > 100 µM; IC50 (MDA-MB-468 [24]): > 100 µM; IC50 (MCF7 [25]): 44.3 µM; viability at 100 µM [26]: 78.8%; viability at 100 µM (MDA-MB-231 [27]): 83.4%; viability at 100 µM [28]: 88.9%; IC50 (ASPC1 [29]): > 100 µM; IC50 (SW1990 [30]): > 100 µM; IC50 (HCT-116 [31]): > 100 µM; viability at 100 µM (SUNE1 [32]): 68.6%; IC50 (HT-29 [33]): > 100 µM; IC50 (A549 [34]): > 100 µM; IC50 (NCI-H1299 [35]): > 100 µM; IC50 (MRC5): 54.1 µM; IC50 (CNE [36]): > 100 µM; viability at 100 µM (CNE [37]): 70.5%; viability at 100 µM (HCT-116 [38]): 73.1%

— ChEMBL document CHEMBL4610038, “The synthesis of trifluoromethylated N-nitroaryl-2-amino-1,3-dichloropropane derivatives and their evaluation as potential anti-cancer agents” (Bioorg Med Chem Lett, 2020)
